Results taken from publication PMC8691200 (Journal of Chemical Information and Modeling, 2021).
Entries after “also recorded” stand apart in the source; their conditions may differ.

Legend:
SARS-CoV-2 [1] = settings: Vero E6 cells; cited from earlier work
SARS-CoV-2 [2] = settings: Vero E6 cells, real-time polymerase chain reaction; cited from earlier work
[3] = tested on: SARS-CoV-2 MEX-BC2/2020 strain; format: cell-based

Compound: COc1ccc2cc1Oc1ccc(cc1)C[C@H]1c3c(cc4c(c3Oc3cc5c(cc3OC)CCN(C)[C@@H]5C2)OCO4)CCN1C [Cepharanthine]
- CPE (% efficacy) (SARS-CoV-2 [1]): 92%

Compound: CCOC(=O)c1c(CSc2ccccc2)n(C)c2cc(Br)c(O)c(CN(C)C)c12 [Compound 1, Arbidol]
- cytotoxicity in viability assays (Vero E6 cells): dose-dependent trend of cytotoxicity
- safety ratio (Vero E6 cells; African green monkey): 2.3
- compound precipitation or recrystallization in micrographs (25 μM, 96 h incubation with infected cells): no observed compound precipitation or recrystallization
- aqueous solubility (solubilized in DMSO or buffer (for salts)): good aqueous solubility
- maximum inhibition of virus entry (SARS-CoV-2 [2]): 70%

Compound: N#C[C@@]1(c2ccc3c(N)ncnn23)O[C@H](CO)[C@@H](O)[C@H]1O [GS-441524]
- maximum % inhibition observed [3]: 100%
- prevention of virus-induced CPE [3]: prevented completely the virus-induced CPE; also recorded: completely prevented the virus-induced CPE

Compound: C=C[C@@]1(C)CC(=O)[C@]2(O)[C@@]3(C)[C@@H](O)CCC(C)(C)[C@@H]3[C@H](OC(=O)CCN(C)C)[C@H](OC(C)=O)[C@@]2(C)O1.Cl [NKH477]
- CPE (% efficacy) (SARS-CoV-2 [1]): 45%

Compound: CC1=C[C@]23C(=O)[C@@H](C=C(CO)[C@@H](O)[C@]2(O)[C@H]1O)[C@H]1[C@@H](C[C@H]3C)C1(C)C [ingenol]
- CPE (% efficacy) (SARS-CoV-2 [1]): 38.2%

Compound: CC(CN(C)C)CN1c2ccccc2CCc2ccccc21 (centres unmarked) [trimipramine]
- CPE (% efficacy) (SARS-CoV-2 [1]): 48%
